In experiment [1] the target is T1, Adrenergic receptor beta (Homo sapiens) (UniProt P08588+P07550+P13945). Particulars: Cavia porcellus.
Experiment [2] concerns the target T1, Adrenergic receptor beta (Homo sapiens). The note with it: Cavia porcellus. The source holds these as a separate data set.
Description: Tested for potent Beta adrenergic receptor action in the atria of guinea pig

In the case of `COc1cc(CC2NCCc3cc(O)c(O)cc32)cc(OC)c1OC` (configuration not stated), the results for the pD2 in experiment [1] and in experiment [2] were 7.8 and 8.8, respectively.

These data come from ChEMBL document CHEMBL1121413, “Synthesis, beta-adrenergic activity, and platelet antiaggregatory activity of a positional isomer of trimetoquinol: 1-(2',4',5'-trimethoxybenzyl)-6,7-dihydroxy-1,2,3,4,-tetrahydroisoquinoline” (J Med Chem, 1980).
